Data set [1] relates to Huh7. Kind of data set: Cell cytotoxicity assay, HUH7. It is filed as cell-based. Particulars: Huh7 cells, 5 days at 37° C., XTT dye. The method, then:
(§1) Cells were seeded 24 hours prior to compound addition. Each test compound (serially diluted from 100 μM) was added to Huh7 (1.5×10^4 cells/well) or HepG2 (1.5×10^4 cells/well), and allowed to incubate for 5 days at 37° C. A medium only control was used to determine the minimum absorbance value and an untreated cell value. At the end of the growth period, XTT dye from Polysciences Europe GmbH was added to each well. The absorbance at 450 nm with a reference wavelength of 600 nm was read with a Sunrise (Tecan) using the medium only control wells as blanks. The 50% inhibition value (CC50) was determined by comparing the degree of inhibition (compared to cell control) plotted against compound concentration. Results from the dilution series were fitted to a sigmoidal dose-response curve.
(§2) Compounds of the invention were evaluated in these assays to assess the stability in human intestinal S9 fraction (HIS9) and human liver S9 fraction (HLS9), and for Cell Cytotoxicity in HUH7, HEP3B and HEPG2 cells.
(Tetrazolium dyes change colour on reduction, which living cells bring about.)

Data set [2] relates to HepG2. Kind of data set: Cell cytotoxicity assay, HEPG2. It counts as cell-based. Particulars: HepG2 cells, 5 days at 37° C., XTT dye. As to the method: as §1, §2
Data set [3] can be described thus: Stability in human liver S9 fraction (HLS9). It is filed as in vitro ADME. The conditions noted are these: human liver S9 0.4 mg protein/mL, 5 μM test compound, 37° C.; for microsomal CLint at 5 μM: liver S9 fraction, pH 7.4. The method, then: (§3) Stability in Human Intestinal S9 Fraction (HIS9) and in Human Liver S9 Fraction (HLS9),
(§4) Stock solutions of each test compound (10 mM) were prepared in DMSO and stored at −20° C. Prior to the start of the experiment, the test compounds were diluted to 500 μM in 50% acetonitrile in water. The reaction mixture was prepared in a total volume of 250 μL containing 5 mM MgC2, 1 mM NADPH and 5 μM test compound in 50 mM potassium phosphate buffer (pH 7.4). The reaction was initiated by addition of human liver or intestinal S9 fraction with a final concentration of 0.4 mg protein/mL (Xeno Tech). The reaction mixture was incubated on an orbital shaker at 37° C. At the desired time points (0, 10, 30 and 60 minutes) aliquots of 50 μL were taken and the reaction was stopped by mixing with 150 μL acetonitrile containing internal standard. Standard solutions of each test compound were prepared from the 500 μM solution by diluting the solution to a final concentration of 5 μM in boiled human S9 (0.4 mg protein/mL), 5 mM MgCl2 and 50 mM potassium phosphate buffer (pH 7.4). The standards and samples were kept on ice for 30 min then centrifuged at 3 000 g for 20 minutes at 10° C., there after 10 μL of supernatant was mixed with 200 μL 50% acetonitrile in water. 0.5 μM of each test compound in 50% acetonitrile in water was injected into the LC/MS-MS to determine the daughter ion, declustring potential (DP), collision energy (CE) and collision cell exit potential (CXP) in order to develop a LC/MS-MS method. The compounds were separated using a C18 column with a QTRAP5500 system. The mobile phase consisted of solvent A (98% water, 2% acetonitrile, 0.1% acetic acid or 10 mM ammonium acetate) and solvent B (80% acetonitrile, 20% water, 0.1% acetic acid or 10 mM ammonium acetate). Elution of the compounds was performed by using a gradient of solvent B from 0% to 100%. 5 μL of standard points and samples were injected for analysis with QTRAP5500.
(§5) The amount of parent compound was determined on the basis of the peak area for each time point compared to standard which was set to 5 μM. Intrinsic clearance (CLint) and half-life (t1/2) were determined from the disappearance curves of the test compound using Excel software.

The nature of data set [4]: Stability in human intestinal S9 fraction (HIS9). It counts as in vitro ADME. The conditions noted are these: human intestinal S9 0.4 mg protein/mL, 5 μM test compound, 37° C.; for microsomal CLint at 5 μM: intestinal S9 fraction, pH 7.4. The method, then:
as §3, §4, §5

On to `CCCC(CCC)COC(=O)C(Cc1ccccc1)NP(=O)(OCC1OCC(n2ccc(N)nc2=O)O1)Oc1ccccc1` (mixture of isomers) [13 diamix 4:1], for which the CC50 (in general, the concentration at which the toxic effect on the cells reaches its halfway point) worked out at 663 nM in data set [1] and 163 nM in data set [2]. Moreover, the “CLint Liver S9” value in data set [3] came out at 85 µL/min/mg. The “CLint Intestinal S9” value in data set [4] came to 27 µL/min/mg.

Consider `CCC[C@@H](C)OC(=O)[C@H](C)NP(=O)(OC[C@H]1OC[C@@H](n2ccc(N)nc2=O)O1)Oc1ccccc1` (single isomer, unassigned) [30 dia-2], for which the results for the microsomal CLint at 5 μM in data set [3] and in data set [4] were 120 µL/min/mg and 11 µL/min/mg, respectively.

On to `CC[C@H](C)OC(=O)[C@H](C)NP(=O)(OC[C@H]1OC[C@@H](n2ccc(N)nc2=O)O1)Oc1ccccc1` (single isomer, unassigned) [31 dia-2], for which the intrinsic clearance (microsomal CLint) – broadly, a measure of how fast metabolising enzymes remove a compound, apart from limits set by blood flow – at 5 μM in data set [3] amounted to 8 µL/min/mg. Moreover, the “CLint Intestinal S9” value in data set [4] was 6 µL/min/mg.

Regarding `CC[C@@H](C)OC(=O)[C@H](C)NP(=O)(OC[C@H]1OC[C@@H](n2cc(F)c(N)nc2=O)O1)Oc1ccccc1` (single isomer, unassigned) [32 dia-2], the results for the microsomal CLint at 5 μM in data set [3] and in data set [4] were 27 µL/min/mg and 8 µL/min/mg, respectively.

For `CC(C)OC(=O)[C@H](C)NP(=O)(OC[C@H]1OC[C@@H](n2ccc(N)nc2=O)O1)Oc1cccc2ccccc12` (single isomer, unassigned; dia-1) [5 dia-1], the results for the CC50 in data set [1] and in data set [2] were 465 nM and 107 nM, respectively. Besides, in data set [3], the “CLint Liver S9” value stood at 32 µL/min/mg. Moreover, in data set [4], the “CLint Intestinal S9” value was 21 µL/min/mg.

As for `C[C@H](NP(=O)(OC[C@H]1OC[C@@H](n2ccc(N)nc2=O)O1)Oc1cccc2ccccc12)C(=O)OC1CCCCC1` (single isomer, unassigned; dia-1) [6 dia-1], the CC50 in data set [1] was determined as 258 nM; in data set [2] it was 92 nM. For the same molecule, in data set [3], the “CLint Liver S9” value was determined as 91 µL/min/mg. Also, the “CLint Intestinal S9” value in data set [4] stood at 36 µL/min/mg.

Regarding `Nc1ccn([C@@H]2CO[C@H](COP(=O)(N[C@@H](Cc3ccccc3)C(=O)OC3CCCCC3)Oc3ccc(Br)cc3)O2)c(=O)n1` (single isomer, unassigned; dia-1) [7 dia-1], the cytotoxic concentration (CC50) in data set [1] was 1020 nM; in data set [2], 240 nM. Moreover, the “CLint Liver S9” value in data set [3] was found to be 148 µL/min/mg. For the same molecule, the “CLint Intestinal S9” value in data set [4] was determined as 147 µL/min/mg.

In the case of `CCCC(CCC)COC(=O)[C@H](C)NP(=O)(OC[C@H]1OC[C@@H](n2ccc(N)nc2=O)O1)Oc1ccccc1` (single isomer, unassigned; dia-1) [8 dia-1], the half-maximal cytotoxic concentration (CC50) in data set [1] came to 123 nM; in data set [2] it was 7 nM.

For the molecule `C[C@H](NP(=O)(OC[C@H]1OC[C@@H](n2ccc(N)nc2=O)O1)Oc1cccc2ccccc12)C(=O)OCc1ccccc1` (single isomer, unassigned; dia-1) [9 dia-1], the CC50 in data set [1] was found to be 164 nM; in data set [2] it was 23 nM. For the same molecule, the “CLint Liver S9” value in data set [3] turned out to be 133 µL/min/mg. The “CLint Intestinal S9” value in data set [4] worked out at 171 µL/min/mg.

Consider `Nc1ccn([C@@H]2CO[C@H](COP(=O)(N[C@@H](Cc3ccccc3)C(=O)OCc3ccccc3)Oc3cccc(C4CC4)c3)O2)c(=O)n1` (single isomer, unassigned; dia-1) [12 dia-1], for which the 50% cytotoxic concentration (CC50) in data set [1] amounted to 4330 nM; in data set [2] it was 481 nM. In addition, in data set [3], the “CLint Liver S9” value is 182 µL/min/mg. Besides, the “CLint Intestinal S9” value in data set [4] was 300 µL/min/mg.

As for `CCCC(CCC)COC(=O)[C@H](C)NP(=O)(OC[C@H]1OC[C@@H](n2ccc(N)nc2=O)O1)Oc1cccc2ccccc12` (single isomer, unassigned; dia-1) [14 dia-1], the figures for the 50% cytotoxic concentration (CC50) in data set [1] and in data set [2] were 216 nM and 16 nM, respectively. The “CLint Liver S9” value in data set [3] was determined as 88 µL/min/mg. The “CLint Intestinal S9” value in data set [4] is 30 µL/min/mg.

As to `CCC(CC)COC(=O)[C@H](C)NP(=O)(OC[C@H]1OC[C@@H](n2ccc(N)nc2=O)O1)Oc1ccccc1` (single isomer, unassigned; dia-1) [15 dia-1], the CC50 was found to be 25 nM in data set [1] and 37 nM in data set [2]. In addition, in data set [3], the “CLint Liver S9” value was 167 µL/min/mg. Moreover, the “CLint Intestinal S9” value in data set [4] amounted to 87 µL/min/mg.

For `CC(C)OC(=O)[C@@H](C)NP(=O)(OC[C@H]1OC[C@@H](n2ccc(N)nc2=O)O1)Oc1ccccc1` (single isomer, unassigned; dia-1) [17 dia-1], the cytotoxic concentration (CC50) in data set [1] and in data set [2] was 50000 nM each time. Further, the “CLint Liver S9” value in data set [3] is 6 µL/min/mg. In addition, the “CLint Intestinal S9” value in data set [4] worked out at 6 µL/min/mg.

As to `C[C@H](NP(=O)(OC[C@H]1OC[C@@H](n2ccc(N)nc2=O)O1)Oc1ccccc1)C(=O)OCc1ccccc1` (single isomer, unassigned; dia-1) [19 dia-1], the results for the CC50 in data set [1] and in data set [2] were 91 nM and 18 nM, respectively. In data set [3], the “CLint Liver S9” value amounted to 19 µL/min/mg. Moreover, in data set [4], the “CLint Intestinal S9” value was determined as 26 µL/min/mg.

In the case of `CCC[C@H](C)OC(=O)[C@H](C)NP(=O)(OC[C@H]1OC[C@@H](n2ccc(N)nc2=O)O1)Oc1ccccc1` (single isomer, unassigned; dia-1) [20 dia-1], the CC50 is 216 nM in data set [1] and 74 nM in data set [2]. Further, the “CLint Liver S9” value in data set [3] stood at 45 µL/min/mg. In addition, the “CLint Intestinal S9” value in data set [4] came to 21 µL/min/mg.

With `CCC(CC)OC(=O)[C@H](C)NP(=O)(OC[C@H]1OC[C@@H](n2ccc(N)nc2=O)O1)Oc1ccccc1` (single isomer, unassigned; dia-1) [21 dia-1], the figures for the half-maximal cytotoxic concentration (CC50) in data set [1] and in data set [2] were 574 nM and 163 nM, respectively. In addition, in data set [3], the “CLint Liver S9” value amounted to 61 µL/min/mg. In data set [4], the “CLint Intestinal S9” value came to 29 µL/min/mg.

With `C[C@H](NP(=O)(OC[C@H]1OC[C@@H](n2ccc(N)nc2=O)O1)Oc1cccc2ccccc12)C(=O)OC1CCCC1` (single isomer, unassigned; dia-1) [22 dia-1], the CC50 was 33 nM in data set [1] and 12 nM in data set [2]. Moreover, in data set [3], the “CLint Liver S9” value stood at 49 µL/min/mg. Moreover, in data set [4], the “CLint Intestinal S9” value is 52 µL/min/mg.

Regarding `COC(=O)[C@H](C)NP(=O)(OC[C@H]1OC[C@@H](n2ccc(N)nc2=O)O1)Oc1ccc(Br)cc1` (single isomer, unassigned; dia-1) [27 dia-1], the values for the CC50 in data set [1] and in data set [2] were 1440 nM and 151 nM, respectively. For the same molecule, in data set [3], the “CLint Liver S9” value turned out to be 38 µL/min/mg. Moreover, the “CLint Intestinal S9” value in data set [4] was 11 µL/min/mg.

For the molecule `CC[C@@H](C)OC(=O)[C@H](C)NP(=O)(OC[C@H]1OC[C@@H](n2ccc(N)nc2=O)O1)Oc1cccc(C2CCC2)c1` (single isomer, unassigned; dia-1) [33 dia-1], in data set [3], the “CLint Liver S9” value came to 180 µL/min/mg. Further, in data set [4], the “CLint Intestinal S9” value was 27 µL/min/mg.

In data set [1], `CC(C)OC(=O)[C@@H](C)NP(=O)(OC[C@H]1OC[C@@H](n2ccc(N)nc2=O)O1)Oc1ccccc1` (single isomer, unassigned; dia-2) [17 dia-2] showed a CC50 of 50000 nM. For the same molecule, in data set [3], the “CLint Liver S9” value was determined as 6 µL/min/mg.

In the case of `CCCC(CCC)COC(=O)[C@H](C)NP(=O)(OC[C@H]1OC[C@@H](n2ccc(N)nc2=O)O1)Oc1ccc(Br)cc1` (single isomer, unassigned; dia-2) [23 dia-2], the “CLint Liver S9” value in data set [3] was determined as 300 µL/min/mg. The “CLint Intestinal S9” value in data set [4] came out at 20 µL/min/mg.

For `CC[C@@H](C)OC(=O)[C@H](C)NP(=O)(OC[C@H]1OC[C@@H](n2ccc(N)nc2=O)O1)Oc1cccc(C2CCC2)c1` (single isomer, unassigned; dia-2) [33 dia-2], in data set [3], the “CLint Liver S9” value turned out to be 230 µL/min/mg. In data set [4], the “CLint Intestinal S9” value amounted to 75 µL/min/mg.
